Eight molecules from patent US5849557A, “Oxidized phospholipid degrading enzyme and gene thereof” (Suntory Limited, priority 1993, dated 1998) can be followed below.

In assay [1] the test system is oxidized phospholipid degrading enzyme. The assay is described as follows: Influence of calcium ions on the enzyme activity. It is filed as biochemical, bovine. The following applies: 4 mM calcium chloride. As for the experimental part: Measurement of the oxidized phospholipid degrading enzyme by using PAF was conducted in a similar manner to Reference Example 2. Namely, Tris-HCl buffer (final concentration: 50 mM, pH 7.4) which contained as a substrate 20 nmol (6,000 dpm) of the labeled PAF obtained in step (a) was added with 5 mM EDTA or 4 mM CaCl2 as needed, to which the sample (enzyme source) to be measured was added to give a total volume of 250 μl.
(§1) They were mixed in a test tube over ice and then incubated at 37° C. for 30 minutes. Thereafter, 2.5 ml of a chloroform-methanol (4:1) mixture were added to terminate the reaction. Subsequent to addition of 0.25 ml of water, the resulting mixture was vigorously mixed for 5 minutes by a vortex stirrer and then centrifuged for 5 minutes at 3,000 rpm to separate it into two layers. From the upper layer, 600 μl were collected, in which 3 ml of "Clearsol I" (product of NACALAI TESQUE INC.) were mixed. The radioactivity was measured by a liquid scintillation counter. From the intensity of the radioactivity, the amount of acetic acid formed as a result of 2-hydrolysis was calculated to determine the enzyme activity.
The enzyme activity was measured by the measuring method of Reference Example 3 except that 4 mM CaCl2 was added instead of 5 mM of EDTA.

Assay [2] deals with T1, oxidized phospholipid degrading enzyme (purified enzyme) (Bos taurus, UniProt Q29460).
T1 construct: from tissue; host or cells: bovine brain gray matter, soluble cytoplasmic fraction
T1 sequence (Q29460 2-232): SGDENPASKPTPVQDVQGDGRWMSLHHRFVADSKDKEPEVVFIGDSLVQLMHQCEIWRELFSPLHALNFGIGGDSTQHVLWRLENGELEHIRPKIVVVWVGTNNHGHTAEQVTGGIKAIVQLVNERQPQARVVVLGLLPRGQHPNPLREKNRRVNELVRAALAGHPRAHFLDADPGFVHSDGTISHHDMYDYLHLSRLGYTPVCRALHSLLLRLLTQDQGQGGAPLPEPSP
T1 sequence (P68401 2-229 partner limits assumed): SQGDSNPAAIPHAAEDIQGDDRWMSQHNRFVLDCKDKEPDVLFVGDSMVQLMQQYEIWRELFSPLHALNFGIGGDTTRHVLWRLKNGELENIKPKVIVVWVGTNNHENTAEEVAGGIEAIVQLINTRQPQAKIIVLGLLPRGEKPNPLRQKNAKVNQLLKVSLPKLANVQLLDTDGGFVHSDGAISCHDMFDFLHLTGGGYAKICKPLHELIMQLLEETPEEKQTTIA
T1 sequence (P43033 2-410 A26E/E154Q partner limits assumed): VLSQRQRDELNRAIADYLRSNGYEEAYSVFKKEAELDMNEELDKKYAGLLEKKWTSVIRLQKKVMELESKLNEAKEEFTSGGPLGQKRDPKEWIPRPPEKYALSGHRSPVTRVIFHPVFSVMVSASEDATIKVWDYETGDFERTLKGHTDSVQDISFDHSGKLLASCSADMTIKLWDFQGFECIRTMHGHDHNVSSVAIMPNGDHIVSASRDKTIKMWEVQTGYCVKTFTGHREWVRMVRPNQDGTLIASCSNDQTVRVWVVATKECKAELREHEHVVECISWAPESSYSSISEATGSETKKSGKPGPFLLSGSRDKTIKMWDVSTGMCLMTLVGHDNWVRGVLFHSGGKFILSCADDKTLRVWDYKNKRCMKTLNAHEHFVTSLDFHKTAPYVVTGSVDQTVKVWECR
The assay is described as follows: biochemical. On the set-up: species or system bovine.

For assay [3], the target named is T1, oxidized phospholipid degrading enzyme (purified enzyme). Put plainly: Substrate specificity of the purified enzyme. Type of assay: biochemical, bovine. As for the experimental part:
as §1, with “560 μl” for “2.5 ml”, “(1:1)” for “(4:1)”, “After” for “Subsequent to addition of 0.25 ml of water,”, “stirrer, the mixture was” for “stirrer and then”, “300” for “600”, “the dicarboxylic” for “acetic”
Namely, Tris-HCl buffer (final concentration: 50 mM, pH 7.4) which contained as a substrate 20 nmol (6,000 dpm) of the labeled PAF obtained in step (a) was added with 5 mM EDTA or 4 mM CaCl2 as needed, to which the sample (enzyme source) to be measured was added to give a total volume of 250 μl.
as §1

Assay [4] deals with T2, 30 kDa subunit of the oxidized phospholipid degrading enzyme (bovine).
T2 chain: T1 sequence (P68401 2-229 partner limits assumed)
The assay is described as follows: heparin Sepharose or sulfated Cellulofine column treatment of the native enzyme. As for the experimental part:
Against buffer A, 15 ml of the roughly purified fraction obtained in step (e) of Example 1 were dialyzed. The solution so dialyzed was then applied to a column (1×5 cm) of "heparin Sepharose" (product of Pharmacia AB) which had been equilibrated with buffer A, whereby about 80% of the enzyme activity passed through the column without adsorption. When the column was washed with buffer A subsequent to the passage of the dialyzed solution, the activity was gradually eluted with tailing.
After the column was washed with about 30 ml of buffer A, the enzyme was eluted with a 30 ml linear gradient of NaCl (0M to 1.5M) in buffer A. The enzyme activity was eluted around about 0.3M NaCl concentration. […] Further, the fractions eluted around about 0.6M NaCl concentration gave only one spot at 45 kDa.

In assay [5] the target is T3, 30 kDa-29 kDa complex without the 45 kDa subunit (bovine).
T3 chain 1: T1 sequence (Q29460 2-232) with N145T, P146Q
T3 chain 2: T1 sequence (P68401 2-229 partner limits assumed)
Put plainly: co-purification of the native enzyme; gel filtration and SDS-PAGE.

[6] abbreviates: in the presence of 4 mM CaCl2, method of Dole et al.

Where a chain is given by its changes, count along the chain named.

Regarding `[Ca+2].[Cl-].[Cl-]` [CaCl2, calcium chloride], the “Enhancement of enzyme activity (in words)” value in assay [1] was “slightly enhanced”.

As for `O=C(CBr)c1ccc(Br)cc1` [BPB, p-bromophenacyl bromide], in assay [2], the “Inhibition of enzyme reactions (in words)” value was “inhibited”; the “Inhibition of the purified enzyme (in words, summary of Table 3)” value was “inhibited”; testing at 100 µM gave an inhibition of 20%; the inhibition at 1000 µM was determined as 97%.

On to phosphatidylethanolamine [PE], for which the “Degrading activity / hydrolysis by the enzyme (in words)” value (“Degrading activity / hydrolysis” for short) in assay [3] is given as “does not show any degrading activity”. Also, in assay [3] (setting [6]), the Specific activity result is reported as “Not degraded”.

`NC(=O)CI` [IAM, iodoacetamide]: in assay [2], the “Inhibition of enzyme reactions (in words)” value is recorded as “not inhibited”; the “Inhibition of the purified enzyme (in words, summary of Table 3)” value is “not inhibited at all”; at 100 µM the inhibition was 0%; the inhibition at 1000 µM worked out at 0%.

As to `CCCCCCCCCCCCCCCC(=O)OC[C@@H](O)COP(=O)([O-])OCC[N+](C)(C)C` [Lyso PC, 1-palmitoyl-sn-glycero-3-phosphocholine], the “Degrading activity / hydrolysis” value in assay [3] is listed as “absolutely no degrading activity”. Further, the Specific activity entry in assay [3] (setting [6]) was “Not degraded”.

With `CCCCCCCCCCCCCCCCOC[C@H](COP(=O)([O-])OCC[N+](C)(C)C)OC(C)=O` [PAF, 1-hexadecyl-2-acetyl-sn-glycero-3-phospho-choline], the “Degrading activity / hydrolysis” value in assay [3] is “shows degrading activity”. The same molecule returned a Specific activity in assay [3] (method of Reference Examples 2 and 3) of 1.45 nmol/min/mg.

B1: 29 kDa subunit of the oxidized phospholipid degrading enzyme (enzyme)
chain: T1 sequence (Q29460 2-232) with N145T, P146Q
In the case of B1, the binding result in assay [4] is given as “binds”.

B2: 45 kDa subunit of the oxidized phospholipid degrading enzyme (other)
chain: T1 sequence (P43033 2-410 A26E/E154Q partner limits assumed)
On to B2, for which the binding result in assay [5] is reported as “binds”.

Broadly, the inhibition is the change of the read-out against control, counted positive when it falls. A lower inhibition goes with a response near the control.
